Source: publication PMC9401864, “Cell‐Free Protein Synthesis for the Screening of Novel Azoreductases and Their Preferred Electron Donor” (Chembiochem, 2022)

Legend:
Type in all cases: biochemical
RopaAzoR [1] = target: T1, RopaAzoR (Rhodococcus opacus, UniProt A0A1B1KJ01); test: Brilliant Black degradation at […] nm, reconstituted cell-free (PURE) mix; conditions: 150 uM NADH; 50 uM FMN; 100 mM sodium phosphate pH 6; 25 °C; 30 uM dye
T1 construct: gene azoR; cell-free synthesis (PUREfrex2.0), unpurified
T1 sequence (A0A1B1KJ01 1-214): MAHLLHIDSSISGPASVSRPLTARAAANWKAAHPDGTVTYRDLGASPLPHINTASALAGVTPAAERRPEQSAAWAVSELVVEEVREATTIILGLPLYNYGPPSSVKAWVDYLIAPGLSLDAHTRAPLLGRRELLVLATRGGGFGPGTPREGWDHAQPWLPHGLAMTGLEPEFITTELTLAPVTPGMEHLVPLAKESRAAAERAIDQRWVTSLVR

StypAzoR [2] = target: T2, StypAzoR (Salmonella enterica, UniProt P63462); test: as above; conditions: 150 uM NADH; 50 uM FMN; 100 mM sodium phosphate pH 6; 25 °C; 30 uM dye
T2 construct: gene azoR; codon-optimised gene in pET-24a(+); cell-free synthesis (PUREfrex2.0), unpurified
T2 sequence (P63462 2-201): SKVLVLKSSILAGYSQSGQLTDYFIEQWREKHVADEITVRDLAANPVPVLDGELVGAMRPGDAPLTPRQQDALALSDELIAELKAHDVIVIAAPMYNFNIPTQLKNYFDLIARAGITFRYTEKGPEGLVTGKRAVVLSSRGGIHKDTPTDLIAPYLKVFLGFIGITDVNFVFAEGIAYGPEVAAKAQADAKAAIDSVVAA

TvarAzoR [3] = target: T3, TvarAzoR (Trichormus variabilis, UniProt Q3M1N6); test: as above; conditions: 150 uM NADH; 50 uM FMN; 100 mM sodium phosphate pH 6; 25 °C; 30 uM dye
T3 construct: gene azoR1; codon-optimised gene in pET-24a(+); cell-free synthesis (PUREfrex2.0), unpurified
T3 sequence (Q3M1N6 1-207): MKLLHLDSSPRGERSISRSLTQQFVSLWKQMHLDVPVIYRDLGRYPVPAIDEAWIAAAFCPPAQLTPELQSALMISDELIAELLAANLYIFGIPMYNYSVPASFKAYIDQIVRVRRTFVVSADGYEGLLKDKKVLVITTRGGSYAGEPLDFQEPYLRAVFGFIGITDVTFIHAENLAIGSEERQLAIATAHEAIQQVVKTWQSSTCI

RferAzoR [4] = target: T4, RferAzoR (Rhodoferax ferrireducens, UniProt Q220J4); test: as above; conditions: 150 uM NADH; 50 uM FMN; 100 mM sodium phosphate pH 6; 25 °C; 30 uM dye
T4 construct: gene azoR; codon-optimised gene in pET-24a(+); cell-free synthesis (PUREfrex2.0), unpurified
T4 sequence (Q220J4 1-203): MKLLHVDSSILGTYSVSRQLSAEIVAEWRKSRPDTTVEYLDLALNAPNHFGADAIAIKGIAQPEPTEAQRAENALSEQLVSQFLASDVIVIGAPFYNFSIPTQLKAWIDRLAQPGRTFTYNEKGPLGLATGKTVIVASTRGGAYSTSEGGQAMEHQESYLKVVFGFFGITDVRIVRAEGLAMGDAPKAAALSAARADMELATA

PaerAzoR [5] = target: T5, PaerAzoR (Pseudomonas aeruginosa, UniProt Q9I5F3); test: methyl red degradation at […] nm with BNAH as electron donor, reconstituted cell-free (PURE) mix; conditions: 30 uM methyl red; 150 uM BNAH; 50 uM FMN; 100 mM sodium phosphate pH 6; 25 °C
T5 construct: gene azoR1; codon-optimised gene in pET-24a(+); cell-free synthesis (PUREfrex2.0), unpurified
T5 sequence (Q9I5F3 1-212): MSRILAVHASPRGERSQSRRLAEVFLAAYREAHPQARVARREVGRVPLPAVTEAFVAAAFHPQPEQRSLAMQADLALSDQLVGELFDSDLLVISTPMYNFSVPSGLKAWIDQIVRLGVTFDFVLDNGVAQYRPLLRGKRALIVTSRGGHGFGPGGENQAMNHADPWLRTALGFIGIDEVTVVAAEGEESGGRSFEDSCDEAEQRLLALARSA

EfaeAzoR [6] = target: T6, EfaeAzoR (Enterococcus faecalis, UniProt Q831B2); test: methyl red degradation at […] nm, reconstituted cell-free (PURE) mix; conditions: 150 uM NADH, NADPH or BNAH; 50 uM FMN; 100 mM sodium phosphate pH 6; 25 °C; 30 uM dye
T6 construct: gene azoR; codon-optimised gene in pET-24a(+); cell-free synthesis (PUREfrex2.0), unpurified
T6 sequence (Q831B2 whole entry): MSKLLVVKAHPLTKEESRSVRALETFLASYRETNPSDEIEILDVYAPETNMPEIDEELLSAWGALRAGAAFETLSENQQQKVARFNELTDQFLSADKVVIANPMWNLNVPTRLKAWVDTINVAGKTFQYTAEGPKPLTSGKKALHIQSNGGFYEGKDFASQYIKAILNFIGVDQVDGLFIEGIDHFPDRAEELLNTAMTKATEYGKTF

PaerAzoR [7] = target: T5, PaerAzoR; test: as above; conditions: 150 uM BNAH; 50 uM FMN; 100 mM sodium phosphate pH 6; 25 °C; 30 uM dye
RopaAzoR [8] = target: T1, RopaAzoR; test: as above; conditions: 150 uM NADH; 50 uM FMN; 100 mM sodium phosphate pH 6; 25 °C; 30 uM dye
TvarAzoR [9] = target: T3, TvarAzoR; test: as above; conditions: 150 uM NADH, NADPH or BNAH; 50 uM FMN; 100 mM sodium phosphate pH 6; 25 °C; 30 uM dye
RferAzoR [10] = target: T4, RferAzoR; test: as above; conditions: 150 uM NADH, NADPH or BNAH; 50 uM FMN; 100 mM sodium phosphate pH 6; 25 °C; 30 uM dye
StypAzoR [11] = target: T2, StypAzoR; test: as above; conditions: 150 uM NADH, NADPH or BNAH; 50 uM FMN; 100 mM sodium phosphate pH 6; 25 °C; 30 uM dye
EfaeAzoR [12] = target: T6, EfaeAzoR; test: methyl red degradation at […] nm with NADH as electron donor, reconstituted cell-free (PURE) mix; conditions: 30 uM methyl red; 150 uM NADH; 50 uM FMN; 100 mM sodium phosphate pH 6; 25 °C

CC(=O)Nc1ccc(S(=O)(=O)O)c2cc(S(=O)(=O)O)c(N=Nc3ccc(N=Nc4ccc(S(=O)(=O)O)cc4)c4ccc(S(=O)(=O)O)cc34)c(O)c12 [Brilliant Black]
Brilliant Black degradation at 570 nm, reconstituted cell-free (PURE) mix (RopaAzoR [1]): All five enzymes and RopaAzoR were able to degrade BB. | Brilliant Black degradation at 570 nm, reconstituted cell-free (PURE) mix (StypAzoR [2]): All five enzymes and RopaAzoR were able to degrade BB. | Brilliant Black degradation at 570 nm, reconstituted cell-free (PURE) mix (TvarAzoR [3]): All five enzymes and RopaAzoR were able to degrade BB. | Brilliant Black degradation at 570 nm, reconstituted cell-free (PURE) mix (RferAzoR [4]): All five enzymes and RopaAzoR were able to degrade BB.

NC(=O)C1=CN(Cc2ccccc2)C=CC1 [BNAH, 1‐benzyl‐1,4‐dihydronicotinamide]
methyl red degradation at 430 nm with BNAH as electron donor, reconstituted cell (PaerAzoR [5]): PaerAzoR catalyzed the degradation of methyl red using BNAH as co‐substrate

CN(C)c1ccc(/N=N/c2ccccc2C(=O)O)cc1 [methyl red]
methyl red degradation at 430 nm, reconstituted cell-free (PURE) mix (EfaeAzoR [6]): Noteworthy are the very high activities of StypAzoR and EfaeAzoR | methyl red degradation at 430 nm, reconstituted cell-free (PURE) mix (PaerAzoR [7]): PaerAzoR catalyzed the degradation of methyl red using BNAH as co‐substrate | methyl red degradation at 430 nm, reconstituted cell-free (PURE) mix (RopaAzoR [8]): active RopaAzoR was synthesized, and substrate degradation was detected in the activity assay | methyl red degradation at 430 nm, reconstituted cell-free (PURE) mix (TvarAzoR [9]): all undescribed enzymes catalyzed the degradation of methyl red | methyl red degradation at 430 nm, reconstituted cell-free (PURE) mix (RferAzoR [10]): all undescribed enzymes catalyzed the degradation of methyl red | methyl red degradation at 430 nm, reconstituted cell-free (PURE) mix (StypAzoR [11]): all undescribed enzymes catalyzed the degradation of methyl red

NC(=O)C1=CN([C@@H]2O[C@H](COP(=O)(O)OP(=O)(O)OC[C@H]3O[C@@H](n4cnc5c(N)ncnc54)[C@H](O)[C@@H]3O)[C@@H](O)[C@H]2O)C=CC1 [NADH]
methyl red degradation at 430 nm with NADH as electron donor, reconstituted cell (EfaeAzoR [12]): EfaeAzoR seems to have a strong preference for NADH
